According to patent publication US8278100B2, “Lasonolide compounds as reagents for inducing premature chromosome condensation and methods for treating disorders” (The United States of America, as Represented by the …, priority 2008, dated 2012):

What was measured:
tumor cells = experiment: Premature chromosome condensation (PCC) induction, cells not specified; format: cell-based; conditions: co-treatment with Lasonolide A
Description: (§1) Burkitt's Lymphoma CA46 cells (500,000) (FIG. 1B) or breast cancer MDA-MB-231 cells (500,000) (FIG. 1A) were treated by 100 nM Lasonolide A (stock solution 100 μM in DMSO) for 1 h. Lymphocytes were treated with 200 nM Lasonolide A for 1 h. Cells were harvested with centrifuging on 2,000 rpm for 5 min at 4° C. Pellets were washed once by PBS and re-suspended in 1 mL PBS. 200 μL cells mixture were added to the chamber for cytospining. Cells were cytospun on 800 rpm for 10 min; slides were fixed in fresh-made 4% paraformaldehyde fixation for 20 min at room temperature, then moved to 70% ethanol for 20 min. Slides were stained with Propidium Iodide (“PI”) (20 μg/mL) and RNase A (100 μg/mL) for 15 min. Slides were washed with PBS for three times and mounted with Vectashield anti-fade mounting media (Vector Laboratories, Inc., Burlingame, Calif.). Images were taken using a Nikon Eclipse TE-300 confocal microscope.

[1] = system: Burkitt's Lymphoma CA46 cells; experiment: PCC induction and PI staining; format: cell-based, human; conditions: 1 μM OA, 1 h
Description: as §1

human lymphocytes = experiment: PCC induction and PI staining; format: cell-based; conditions: 1 μM OA, without additional reagents

## CN1CC[C@H](c2c(O)cc(O)c3c(=O)cc(-c4ccccc4Cl)oc23)[C@H](O)C1 [Flavorpiridol]
Tumor cells
  effect of the added inhibitor on PCC induction by Lasonolide A: could not influence the PCC induction

## C[C@@H](CN1CC(=O)NC(=O)C1)N1CC(=O)NC(=O)C1 [ICRF187]
Tumor cells
  effect of the added inhibitor on PCC induction by Lasonolide A: changed the pattern of PCC

## C[C@@]1(CO)[C@H](O)CC[C@@]2(C)[C@H]1CC[C@H]1C[C@@H]3C[C@@]12CC[C@]3(O)CO [aphidicolin]
Tumor cells
  effect of the added inhibitor on PCC induction by Lasonolide A: had no effect on PCC induction

## CC[C@H](CO)Nc1nc(NCc2ccccc2)c2ncn(C(C)C)c2n1 [Roscovitine]
Tumor cells
  effect of the added inhibitor on PCC induction by Lasonolide A: could not influence the PCC induction

## C=C1[C@@H](O)[C@@H]2O[C@]3(CC[C@H](/C=C/[C@@H](C)[C@@H]4CC(C)=C[C@@]5(O[C@H](C[C@@](C)(O)C(=O)O)CC[C@H]5O)O4)O3)CC[C@H]2O[C@@H]1[C@@H](O)C[C@H](C)[C@H]1O[C@@]2(CCCCO2)CC[C@H]1C [OA, Okadaic Acid, reference compound]
[1]
  cells with premature chromosome condensation (PCC): 31%
Human lymphocytes
  lymphocytes going to PCC: 1.7%
